Data: paper PMC6273584, “Synthesis of Thiazolo[5,4-f]quinazolin-9(8H)-ones as Multi-Target Directed Ligands of Ser/Thr Kinases” (Molecules, 2016)
Read-outs that look alike come from different tables or passages of the source.

What was measured:
[1] = molecular target: T1, CDK5/p25 (Homo sapiens, UniProt Q00535); experiment: In vitro kinase assay CDK5/p25, [γ-33P]ATP, histone H1 substrate; type: biochemical
T1 construct: made in house
Description: (§1) It was also tested as positive control and its IC50 values were compared to those obtained for the compounds under study.
(§2) Buffer A: MgCl2 (10 mM), 1 mM ethylene glycol-bis(2-aminoethylether)-N,N,N’,N’- tetraacetic acid (EGTA), 1 mM dithiothreitol (DTT), 25 mM Tris-HCl pH 7.5, 50 μg heparin/mL. Buffer B: β-Glycerophosphate (60 mM), 30 mM p-nitrophenylphosphate, 25 mM 3-(N-morpholino) propanesulfonic acid (Mops) (pH 7.2), 5 mM EGTA, 15 mM MgCl2, 1 mM DTT, 0.1 mM sodium vanadate.
(§3) Blank values were substracted and activities expressed in % of the maximal activity, i.e., in the absence of inhibitors. Controls were performed with appropriate dilutions of dimethylsulfoxide (DMSO). IC50 values were calculated from dose-response curves established by Sigma-Plot graphs. The GSK-3, CK1, DYRK1A and CLK1 peptide substrates were obtained from Proteogenix (Oberhausbergen, France).
(§4) CDK5/p25. (Human, recombinant) was prepared as previously described. […] ATP (3000 Ci/mmol; 10 mCi/mL) in a final volume of 30 μL. After 30 min incubation at 30 °C, 25 μL aliquots of supernatant were spotted onto sheets of P81 phosphocellulose paper (Whatman) and 20 s later, the filters were washed eight times (for at least 5 min each time) in a solution of 10 mL phosphoric acid/L of water. The wet filters were counted in the presence of 1 mL ACS (Amersham, UK) scintillation fluid.

[2] = molecular target: CK1δ/ε; experiment: In vitro kinase assay CK1δ/ε, CK1-specific peptide substrate; type: biochemical, Porcine
Description: as §1, §2, §3, §4
CK1δ/ε. (Porcine brain, native) was assayed as described for CDK5/p25 but using the CK1-specific peptide substrate […]pSAYSITA [37].

[3] = molecular target: DYRK1A (Rattus norvegicus, UniProt Q63470); experiment: In vitro kinase assay DYRK1A, Woodtide substrate; type: biochemical
Description: as §1, §2, §3, §4

[4] = molecular target: GSK-3α/β; experiment: In vitro kinase assay GSK-3α/β, GS-1 peptide substrate; type: biochemical, Porcine
Description: as §1, §2, §3, §4
GSK-3α/β. (Porcine brain, native) was assayed, as described for CDK5/p25 but in buffer A and using a GSK-3 specific substrate (GS-1: […]pSEDEEE) (pS stands for phosphorylated serine).

[5] = molecular target: CLK1 (Homo sapiens, UniProt P49759); experiment: biochemical
CLK1, sequence (P49759 whole entry): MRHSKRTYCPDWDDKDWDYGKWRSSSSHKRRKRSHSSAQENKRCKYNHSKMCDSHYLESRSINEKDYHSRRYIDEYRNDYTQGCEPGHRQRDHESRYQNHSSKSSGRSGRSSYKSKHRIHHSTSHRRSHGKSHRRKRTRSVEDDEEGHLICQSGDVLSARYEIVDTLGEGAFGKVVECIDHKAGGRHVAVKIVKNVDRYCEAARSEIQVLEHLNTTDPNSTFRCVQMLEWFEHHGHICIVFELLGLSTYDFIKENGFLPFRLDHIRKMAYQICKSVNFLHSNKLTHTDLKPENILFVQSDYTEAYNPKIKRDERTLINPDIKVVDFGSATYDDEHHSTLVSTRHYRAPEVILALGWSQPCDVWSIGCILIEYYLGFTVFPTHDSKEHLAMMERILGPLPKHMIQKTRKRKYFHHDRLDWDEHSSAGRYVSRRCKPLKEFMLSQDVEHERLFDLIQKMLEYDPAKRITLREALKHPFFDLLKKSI

[6] = 15 μM ATP, 30 min, 30 °C, triplicate, <50% inhibition at 10 μM = IC50 >10 μM

T1 sequence (Q00535 whole entry): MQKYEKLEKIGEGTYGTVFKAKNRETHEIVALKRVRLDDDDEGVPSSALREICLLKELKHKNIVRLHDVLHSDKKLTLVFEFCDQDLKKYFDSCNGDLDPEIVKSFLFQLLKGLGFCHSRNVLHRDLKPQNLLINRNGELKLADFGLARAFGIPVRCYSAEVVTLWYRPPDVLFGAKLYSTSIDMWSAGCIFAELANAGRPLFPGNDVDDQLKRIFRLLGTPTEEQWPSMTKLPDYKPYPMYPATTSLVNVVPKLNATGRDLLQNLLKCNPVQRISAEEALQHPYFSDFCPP
T1 sequence (Q15078 99-307 partner limits assumed): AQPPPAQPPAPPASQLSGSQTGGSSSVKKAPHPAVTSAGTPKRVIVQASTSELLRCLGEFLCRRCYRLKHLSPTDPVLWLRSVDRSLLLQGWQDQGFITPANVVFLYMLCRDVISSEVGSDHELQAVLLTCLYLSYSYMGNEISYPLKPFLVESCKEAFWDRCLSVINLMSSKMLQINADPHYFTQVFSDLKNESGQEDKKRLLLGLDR

| IC50 [1] | IC50 [2, 6] | IC50 [3] | IC50 [4] | IC50 [5] | SMILES | IC50 [4, 6] | IC50 ([3]; read-out: DYRK1A IC50) | IC50 [2] |
| --- | --- | --- | --- | --- | --- | --- | --- | --- |
| > 10 µM | > 10 µM | 60 nM |  | 60 nM | N=C(OCc1ccccc1)c1nc2ccc3ncn(C4CC4)c(=O)c3c2s1 [Compound 13a, Benzyl 8-cyclopropyl-9-oxo-8,9-dihydrothiazolo[5,4-f]quinazoline-2-carbimidate] | 100 nM |  |  |
| > 10 µM | > 10 µM | 290 nM | 690 nM | 590 nM | COCCn1cnc2ccc3nc(C(=N)OCc4ccccc4)sc3c2c1=O [Compound 13b, Benzyl 8-(2-methoxyethyl)-9-oxo-8,9-dihydrothiazolo[5,4-f]quinazoline-2-carbimidate] |  |  |  |
| > 10 µM | > 10 µM | 160 nM | 110 nM | 480 nM | COCCCn1cnc2ccc3nc(C(=N)OCc4ccccc4)sc3c2c1=O [Compound 13c, Benzyl 8-(3-methoxypropyl)-9-oxo-8,9-dihydrothiazolo[5,4-f]quinazoline-2-carbimidate] |  |  |  |
| > 10 µM | > 10 µM | 62 nM | 28 nM | 320 nM | N=C(OCc1ccccc1)c1nc2ccc3ncn(C4CCCC4)c(=O)c3c2s1 [Compound 13e, Benzyl 8-cyclopentyl-9-oxo-8,9-dihydrothiazolo[5,4-f]quinazoline-2-carbimidate] |  |  |  |
| > 10 µM | > 10 µM | 280 nM | 83 nM | 1300 nM | N=C(OCc1ccccc1)c1nc2ccc3ncn(C4CCCCC4)c(=O)c3c2s1 [Compound 13g, Benzyl 8-cyclohexyl-9-oxo-8,9-dihydrothiazolo[5,4-f]quinazoline-2-carbimidate] |  |  |  |
| > 10 µM | > 10 µM | 210 nM | 200 nM | 100 nM | CCOC(=N)c1nc2ccc3ncn(C4CC4)c(=O)c3c2s1 [Compound 14a, Ethyl 8-cyclopropyl-9-oxo-8,9-dihydrothiazolo[5,4-f]quinazoline-2-carbimidate] |  |  |  |
| > 10 µM | > 10 µM | 820 nM | 1200 nM | 1900 nM | CCOC(=N)c1nc2ccc3ncn(CCOC)c(=O)c3c2s1 [Compound 14b, Ethyl 8-(2-methoxyethyl)-9-oxo-8,9-dihydrothiazolo[5,4-f]quinazoline-2-carboximidoate] |  |  |  |
| > 10 µM | > 10 µM | 370 nM | 170 nM | 490 nM | CCOC(=N)c1nc2ccc3ncn(CCCOC)c(=O)c3c2s1 [Compound 14c, Ethyl 8-(3-methoxypropyl)-9-oxo-8,9-dihydrothiazolo[5,4-f]quinazoline-2-carboximidoate] |  |  |  |
| > 10 µM | > 10 µM | 370 nM |  | 340 nM | CCOC(=N)c1nc2ccc3ncn(C(C)C)c(=O)c3c2s1 [Compound 14d, Ethyl 8-isopropyl-9-oxo-8,9-dihydrothiazolo[5,4-f]quinazoline-2-carboximidoate] |  |  |  |

Second part, the compound before the results:

| SMILES | IC50 [1] | IC50 [2, 6] | IC50 [3] | IC50 [4] | IC50 [5] | IC50 [4, 6] | IC50 ([3]; read-out: DYRK1A IC50) | IC50 [2] |
| --- | --- | --- | --- | --- | --- | --- | --- | --- |
| N#Cc1nc2ccc3ncn(C4CC4)c(=O)c3c2s1 [Compound 11a, 8-Cyclopropyl-9-oxo-8,9-dihydrothiazolo[5,4-f]quinazoline-2-carbonitrile] | > 10 µM | > 10 µM | 3300 nM | 3300 nM | 1100 nM |  |  |  |
| COCCn1cnc2ccc3nc(C#N)sc3c2c1=O [Compound 11b, 8-(2-Methoxyethyl)-9-oxo-8,9-dihydrothiazolo[5,4-f]quinazoline-2-carbonitrile] | > 10 µM | > 10 µM | 7800 nM |  | 4100 nM | ≥ 10000 nM |  |  |
| COCCCn1cnc2ccc3nc(C#N)sc3c2c1=O [Compound 11c, 8-(3-Methoxypropyl)-9-oxo-8,9-dihydrothiazolo[5,4-f]quinazoline-2-carbonitrile] | > 10 µM | > 10 µM | 7700 nM | 1200 nM | 1300 nM |  |  |  |
| COC(=N)c1nc2ccc3ncn(C4CC4)c(=O)c3c2s1 [Compound 12a, Methyl 8-cyclopropyl-9-oxo-8,9-dihydrothiazolo[5,4-f]quinazoline-2-carbimidate] | 3.9 µM | > 10 µM |  | 82 nM | 31 nM |  | 91 nM |  |
| COCCCn1cnc2ccc3nc(C(=N)OC)sc3c2c1=O [Compound 12c, Methyl 8-(3-methoxypropyl)-9-oxo-8,9-dihydrothiazolo[5,4-f]quinazoline-2-carbimidate] | > 10 µM | > 10 µM | 320 nM | 120 nM | 210 nM |  |  |  |
| COC(=N)c1nc2ccc3ncn(C(C)C)c(=O)c3c2s1 [Compound 12d, Methyl 8-isopropyl-9-oxo-8,9-dihydrothiazolo[5,4-f]quinazoline-2-carbimidate] | 3 µM |  | 140 nM | 41 nM | 160 nM |  |  | 5.4 µM |
| COC(=N)c1nc2ccc3ncn(C4CCCC4)c(=O)c3c2s1 [Compound 12e, Methyl 8-cyclopentyl-9-oxo-8,9-dihydrothiazolo[5,4-f]quinazoline-2-carbimidate] | 4.9 µM | > 10 µM | 72 nM | 28 nM | 290 nM |  |  |  |
| COC(=N)c1nc2ccc3ncn(C4CCC4)c(=O)c3c2s1 [Compound 12f, Methyl 8-cyclobutyl-9-oxo-8,9-dihydrothiazolo[5,4-f]quinazoline-2-carbimidate] | > 10 µM | > 10 µM | 130 nM | 160 nM | 91 nM |  |  |  |
| COC(=N)c1nc2ccc3ncn(C4CCCCC4)c(=O)c3c2s1 [Compound 12g, Methyl 8-cyclohexyl-9-oxo-8,9-dihydrothiazolo[5,4-f]quinazoline-2-carbimidate] | 1.8 µM | > 10 µM | 170 nM | 30 nM | 380 nM |  |  |  |
| COC(=N)c1nc2ccc3ncn(N(C)C)c(=O)c3c2s1 [Compound 12h, Methyl 8-dimethylamino-9-oxo-8,9-dihydrothiazolo[5,4-f]quinazoline-2-carbimidate] | > 10 µM | > 10 µM |  | 300 nM | 990 nM |  | 500 nM |  |
| COC(=N)c1nc2ccc3ncn(CCN4CCOCC4)c(=O)c3c2s1 [Compound 12j, Methyl 8-(2-morpholinoethyl)-9-oxo-8,9-dihydrothiazolo[5,4-f]quinazoline-2-carbimidate] | > 10 µM | > 10 µM | 200 nM | 1200 nM | 690 nM |  |  |  |
| COC(=N)c1nc2ccc3ncn(-c4ccc(C)cc4)c(=O)c3c2s1 [Compound 12k, Methyl 8-(p-tolyl)-9-oxo-8,9-dihydrothiazolo[5,4-f]quinazoline-2-carbimidate] | > 10 µM | > 10 µM | 380 nM | 510 nM | 880 nM |  |  |  |
| COC(=N)c1nc2ccc3ncn(-c4ccc(OC)cc4)c(=O)c3c2s1 [Compound 12l, Methyl 8-(4-methoxyphenyl)-9-oxo-8,9-dihydrothiazolo[5,4-f]quinazoline-2-carbimidate] | > 10 µM | > 10 µM | 3000 nM | 1200 nM | 7900 nM |  |  |  |
| COC(=N)c1nc2ccc3ncn(-c4ccc(N(C)C)cc4)c(=O)c3c2s1 [Compound 12m, Methyl 8-(4-dimethylaminophenyl)-9-oxo-8,9-dihydrothiazolo[5,4-f]quinazoline-2-carbimidate] | > 10 µM | > 10 µM | > 10000 nM |  | > 10000 nM | > 10000 nM |  |  |
| COC(=N)c1nc2ccc3ncn(C)c(=O)c3c2s1 [Compound 12n, Methyl 8-methyl-9-oxo-8,9-dihydrothiazolo[5,4-f]quinazoline-2-carbimidate] | > 10 µM | > 10 µM | 180 nM | 1700 nM | 80 nM |  |  |  |
| N=C(OCc1ccccc1)c1nc2ccc3ncn(C4CCC4)c(=O)c3c2s1 [Compound 13f, Benzyl 8-cyclobutyl-9-oxo-8,9-dihydrothiazolo[5,4-f]quinazoline-2-carbimidate] | > 10 µM | > 10 µM | 59 nM | 71 nM | 71 nM |  |  |  |
| CN(C)n1cnc2ccc3nc(C(=N)OCc4ccccc4)sc3c2c1=O [Compound 13h, Benzyl 8-dimethylamino-9-oxo-8,9-dihydrothiazolo[5,4-f]quinazoline-2-carbimidate] | > 10 µM | > 10 µM | 210 nM | 150 nM | 1400 nM |  |  |  |
| COc1ccc2c(c1)[nH]c1c(C)nccc12 [Harmine, reference compound] |  |  |  |  |  | > 10000 nM |  | 1.5 µM |
